According to patent publication US10670600B2, “Saposin-A derived peptides and uses thereof” (CHILDREN'S MEDICAL CENTER CORPORATION, priority 2007, dated 2020):
Bridge positions count the residues as written; N and C are the ends. Ends that are not written are not given here.

Legend:
Psap in PC3-MycER cells = test: Psap levels in PC3-MycER cells, western blot; assay type: cell-based, human; conditions: induction of Myc function
Description: For Western blotting, cells were harvested by mechanical scraping into 4° C. PBS, cell pellets were obtained by removing PBS after centrifugation at 13,000 rpm in a Heraeus Biofuge Fresco (Thermo Electron, Asheville, N.C.) for 2 min. Cells were then lysed in 50 mM Tris-HCl (pH 7.4), 150 mM NaCl, 1% NP40, 1 mM sodium orthovanadate, 5 mM NaF, 20 mM β-glycerophosphate, and complete protease inhibitor (Roche, Indianapolis, Ind.) and protein concentrations were determined by the BioRad protein assay (BioRad, Hercules, Calif.). Fifty micrograms of protein were loaded per well onto a 4-12% pre-cast Bis-Tris gel (BioRad, Hercules, Calif.). The protein extracts were electrophoresed and transferred to an immobilon-P membrane (Millipore, Bedford, Mass.). The membranes were blocked in 5% nonfat milk and incubated in primary antibody to Tsp-1 (Ab-11, LabVision, Fremont, Calif.), c-Myc and phospho-Myc (Cell Signaling Technology, Beverly, Mass.), Prosaposin (Santa Cruz Biotechnology, Santa Cruz, Calif.), β-actin (AbCam, Cambridge, UK). The membranes were then washed in PBS+0.1% Tween-20 and incubated with either HRP-conjugated goat anti-mouse or anti-rabbit secondary antibody (Jackson Immunoresearch Laboratories, West Grove, Pa.) followed by another wash. […] Protein volume intensity was determined using a Bio-Rad Chemi-Doc XRS system (Bio-Rad, CA). […]

[1] = system: Tsp-1 expression in WI-38 lung fibroblasts; test: Tsp-1 expression in WI-38 lung fibroblasts, western blot; assay type: cell-based, human
Description: (§1) For the conditioned media assay, 1.5×10^6 tumor cells and fibroblasts cells were grown in the tumor cell media containing 0.1% FBS for 12 hours at which point the conditioned media from the tumor cells was centrifuged to remove any cells or cell debris and transferred to the fibroblasts subsequent to removal of the low serum fibroblast growth media. All assays were performed a minimum of five times and representative samples depicted. The fibroblasts and media were harvested after 12 to 16 hours after addition of the tumor cell conditioned media and lysed for the western blot analysis while the conditioned media was collected for ELISA analysis. For the co-culture assays, 1×10^6 fibroblasts were seeded in the bottom chamber of transwell tissue culture plates (Corning Inc., Corning, N.Y.) and 1×10^6 tumor cells were seeded on the membrane in the top chamber of the plates. The two cell types were co-cultured for 40 to 44 hours in tumor cell media containing 0.1% FBS before harvesting and lysing the fibroblasts for western blot analysis and collecting the media for ELISA analysis.
For Western blotting, cells were harvested by mechanical scraping into 4° C. PBS, cell pellets were obtained by removing PBS after centrifugation at 13,000 rpm in a Heraeus Biofuge Fresco (Thermo Electron, Asheville, N.C.) for 2 min. Cells were then lysed in 50 mM Tris-HCl (pH 7.4), 150 mM NaCl, 1% NP40, 1 mM sodium orthovanadate, 5 mM NaF, 20 mM β-glycerophosphate, and complete protease inhibitor (Roche, Indianapolis, Ind.) and protein concentrations were determined by the BioRad protein assay (BioRad, Hercules, Calif.). Fifty micrograms of protein were loaded per well onto a 4-12% pre-cast Bis-Tris gel (BioRad, Hercules, Calif.). The protein extracts were electrophoresed and transferred to an immobilon-P membrane (Millipore, Bedford, Mass.). The membranes were blocked in 5% nonfat milk and incubated in primary antibody to Tsp-1 (Ab-11, LabVision, Fremont, Calif.), c-Myc and phospho-Myc (Cell Signaling Technology, Beverly, Mass.), Prosaposin (Santa Cruz Biotechnology, Santa Cruz, Calif.), β-actin (AbCam, Cambridge, UK). The membranes were then washed in PBS+0.1% Tween-20 and incubated with either HRP-conjugated goat anti-mouse or anti-rabbit secondary antibody (Jackson Immunoresearch Laboratories, West Grove, Pa.) followed by another wash. The membrane was then developed with ECL reagent (Pierce, Rockford, Ill.) and exposed on film. Protein volume intensity was determined using a Bio-Rad Chemi-Doc XRS system (Bio-Rad, CA). […]
Seven 20-amino acid (20-mer) peptides derived from saposin A were tested for ability to stimulate Tsp-1 expression in fibroblasts. […] WI-38 lung fibroblasts were treated with these peptides overnight and the Tsp-1 expression was analyzed by Western blot analysis. […]

p53 in WI-38 fibroblasts = test: p53 expression in WI-38 fibroblasts, western blot; assay type: cell-based, human
[2] = system: MDM2 in WI-38 fibroblasts; test: MDM2 protein levels in WI-38 fibroblasts, western blot; assay type: cell-based, human
[3] = system: Tsp-1 expression in prostate fibroblasts; test: Tsp-1 expression in prostate fibroblasts, western blot; assay type: cell-based, human; conditions: for stimulation of Tsp-1 by PC3 conditioned media in the presence of inhibitor: prostate fibroblasts treated with PC3 CM plus inhibitor
Description: (§2) Methods of assaying the effects of mutant, fragment or variant Psap on Tsp-1 and p53 expression are described herein. Briefly, full-length, mutant, fragment and variant Psap are applied to the cell cultures prostate fibroblast. The conditioned media from PC3M-LN4 (LN4) and PC3 cells are used as controls, with PC3 as positive/stimulating control and LN4 as negative/inhibiting controls. After a period of included (˜16 h), the cells are harvested, rinsed, and lysed. The lysates are analyzed for the level of Tsp-1 and p53 expression by western blot analyses, with β-actin as the internal lysate protein loading control.
as §1
For Western blotting, cells were harvested by mechanical scraping into 4° C. PBS, cell pellets were obtained by removing PBS after centrifugation at 13,000 rpm in a Heraeus Biofuge Fresco (Thermo Electron, Asheville, N.C.) for 2 min. Cells were then lysed in 50 mM Tris-HCl (pH 7.4), 150 mM NaCl, 1% NP40, 1 mM sodium orthovanadate, 5 mM NaF, 20 mM β-glycerophosphate, and complete protease inhibitor (Roche, Indianapolis, Ind.) and protein concentrations were determined by the BioRad protein assay (BioRad, Hercules, Calif.). Fifty micrograms of protein were loaded per well onto a 4-12% pre-cast Bis-Tris gel (BioRad, Hercules, Calif.). The protein extracts were electrophoresed and transferred to an immobilon-P membrane (Millipore, Bedford, Mass.). […] Protein volume intensity was determined using a Bio-Rad Chemi-Doc XRS system (Bio-Rad, CA).

[4] = system: p53 expression in prostate fibroblasts; test: p53 expression in prostate fibroblasts, western blot; assay type: cell-based, human
Description: as §2, with “control. […]” for “control.”
For Western blotting, cells were harvested by mechanical scraping into 4° C. […] Cells were then lysed in 50 mM Tris-HCl (pH 7.4), 150 mM NaCl, 1% NP40, 1 mM sodium orthovanadate, 5 mM NaF, 20 mM β-glycerophosphate, and complete protease inhibitor (Roche, Indianapolis, Ind.) and protein concentrations were determined by the BioRad protein assay (BioRad, Hercules, Calif.). […] Protein volume intensity was determined using a Bio-Rad Chemi-Doc XRS system (Bio-Rad, CA).
Having determined that p53 protein levels were elevated in the stroma of PC3 tumors, the inventors determined if p53 stimulation could be responsible for the increased expression of Tsp-1. […]

thrombospondin-1 (Tsp-1) = test: Tsp-1 expression in lungs and livers of treated mice, western blot; assay type: in vivo
Description: The 20-mer […] (SEQ. ID. No. 29) was tested in vivo in mice for their ability to induce Tsp-1 expression. Four mice were treated with the 20-amino acid peptide (residues 31-50 of saposin A) at a dose of 30 mg/kg/day in combination with 200 μL of conditioned media (CM) from the metastatic prostate cancer cell line PC3M-LN4. […] Another four mice were treated with CM from PC3M-LN4 alone, and a control group of four mice with treated with vehicle (PBS) alone. […] Mice were treated for 9 days after which they were sacrificed and the lungs and livers were harvested and lysed. Tissue lysates were then run on a 4-12% gradient bis-tris polyacrylamide gel and transferred to a nitrocellulose membrane for western blotting with antibodies specific for thrombospondin-1 (Tsp-1) and β-actin.

semaphorin 3F = semaphorin 3F mRNA in WI-38 fibroblasts, real time RT-PCR; assay type: cell-based, human; conditions: conditioned media of cells with or without prosaposin, relative to GAPDH
Description: FIG. 25. mRNA levels of semaphorin 3F, relative to GAPDH, in WI-38 fibroblasts that were untreated (NoTxPrSc) treated with conditioned media from PC3, PC3-shprosaposin (PC3-sh), PC3M-LN4 (LN4) and PC3M-LN4 cells ectopically expressing prosaposin (LN4Psap) as determined by real time RT-PCR.
Finally, it was determined that prosaposin stimulates the expression of semaphorin 3F, a transcriptional target of p53 and an inhibitor of metastasis and lymphangiogenesis, at the mRNA level (FIG. 25).

[5] = WI-38 fibroblasts, in the presence of the cyclic 13-mer
[6] = WI-38 lung fibroblasts treated with peptide
[7] = WI-38 fibroblasts treated with peptide
[8] = mice treated for 9 days, versus control
[9] = mice, 30 mg/kg/day with 200 μL PC3M-LN4 CM, 9 days, compared to PC3M-LN4 CM

Molecule: 4-hydroxy-tamoxifen [4-HT]
- reduction in Psap levels (Psap in PC3-MycER cells): 4 fold

Molecule: NC(=O)c1ccc(-c2nc(-c3ccc4c(c3)OCCO4)c(-c3ccccn3)[nH]2)cc1 [D4476, reference compound]
- Tsp-1 protein level (in words) [1, 5]: reduction
- p53 protein level (in words) (p53 in WI-38 fibroblasts; [5]): reduction
- MDM2 protein level (in words) [2, 5]: increase

Molecule: COc1ccc2c(c1)c(C1=C(c3c[nH]c4ccccc34)C(=O)NC1=O)cn2CCCN(C)C [GO 6983, reference compound]
- stimulation of Tsp-1 by PC3 conditioned media in the presence of inhibitor [3]: abolished
- stimulation of p53 by PC3 conditioned media in the presence of inhibitor ([4]; prostate fibroblasts treated with PC3 CM plus inhibitor): abolished

Molecule: CDWLPKPNMSASC (disulfide 1-13) [SEQ. ID. No. 37, cyclic 13 amino acid peptide, residues 35-47 of saposin A]
- Tsp-1 expression (in words) [1, 6]: sufficient to stimulate
- p53 expression (in words) (p53 in WI-38 fibroblasts; [7]): sufficient to stimulate
- MDM2 protein level (in words) [2, 7]: down regulation

Molecule: LEKTCDWLPKPNMSASCKEI [SEQ. ID. No. 29, 20-mer, residues 31-50 of saposin A]
- Tsp-1 expression (in words) [1, 6]: able to stimulate
- level of Tsp-1 stimulation relative to PC3 conditioned media (thrombospondin-1 (Tsp-1); mice treated for 9 days, lung and liver): greater
- Tsp-1 expression in the liver (in words) (thrombospondin-1 (Tsp-1); [8]): stimulated
- Tsp-1 expression in the lung (in words) (thrombospondin-1 (Tsp-1); [8]): stimulated
- stimulation of Tsp-1 expression in the liver (thrombospondin-1 (Tsp-1); [9]): 4 fold
- stimulation of Tsp-1 expression in the lung (thrombospondin-1 (Tsp-1); [9]): 6 fold

B1: prosaposin: saposin precursor protein, purified from PC3M-LN4 conditioned media with Talon metal affinity resin (protein, listed as Homo sapiens)
chain: MYALFLLASLLGAALAGPVLGLKCTRGSAVWCQNVKTASDCGAVKHCLQTVWNKPTVKSLPCDICKDVVTAAGDMLKDNATILVYLKTCDWLPKPNMSASCKIVDSYLPVILDIIKGMSRPGVCSALNLCSLQKHLALNHQKQLSNKIPLDMTVVAPFMANIPLLLYPQDGPRSKPQPKDNGDVCQDCIQMVTDIQTAVRTNSTFVQALVHVKCDRLGPGMADICKNYISQYSIAIQMMMHMQPKICALVGFCDVKMPMQTLVPAKVASKNVIPALLVPIKKHVPAKSDVYCVCFLVKVTKLIDNNKTKILDAFDKMCSKLPKSLSCQVVDTYGSSILSILLVSPLVCSMLHLCSGTRLPALTVHVTQPKDGGFCVCKKLVGYLDRNLKNSTKQILAALKGCSFLPDPYQKQCDQFVAYPVLIILVVMDPSFVCLKIGACPSAHKPLLGTKCIWGPSYWCQNTTAAQCNAVHCKRHVWN
- stimulation of Tsp-1 expression ([3]; prostate fibroblasts, western blot, band volume density, purified Psap 5 μg): ~5 fold
- p53 expression (in words) ([4]; prostate fibroblasts, western blot): stimulated
- expression of semaphorin 3F at the mRNA level (semaphorin 3F): stimulates

B2: RAP: Receptor Associate Protein, a competitive inhibitor of LRP binding (protein)
chain: YSREKNQPKPSPKRESGEEFRMEKLNQLWEKAQRLHLPPVRLAELHADLKIQERDELAWKKLKLDGLDEDGEKEARLIRNLNVILAKYGLDGKKDARQVTSNSLSGTQEDGLDDPRLEKLWHKAKTSGKFSGEELDKLWREFLHHKEKVHEYNVLLETLSRTEEIHENVISPSDLSDIKGSVLHSRHTELKEKLRSINQGLDRLRRVSHQGYSTEAEFEEPRVIDLWDLAQSANLTDKELEAFREELKHFEAKIEKHNHYQKQLEIAHEKLRHAESVGDGERVSRSREKHALLEGRTKELGYTVKKHLQDLSGRISRARHNEL
- stimulation of Tsp-1 by PC3 conditioned media in the presence of inhibitor [3]: no longer stimulated

B3: SLPCDICKDVVTAAGDMLKDNATEEEILVYLEKTCDWLPKPNMSASCKEIVDSYLPVILDIIKGEMSRPGEVCSALNLCES (protein, listed as Homo sapiens)
chain: SLPCDICKDVVTAAGDMLKDNATEEEILVYLEKTCDWLPKPNMSASCKEIVDSYLPVILDIIKGEMSRPGEVCSALNLCES
notes: cleavage product of Psap, expressed as truncation mutant
- stimulation of Tsp-1 (in words) ([3]; prostate fibroblasts, conditioned media of PC3M-LN4 cells transfected with truncation mutants): minimal domain that is functionally required for the stimulation of Tsp-1
- Tsp-1 expression (in words) ([1]; lung fibroblasts, CM from PC3M-LN4 cells transduced with truncated mutants of prosaposin): sufficient to stimulate
